Experimental data reported in patent US10183938B2, “Geminal substituted quinuclidine amide compounds as agonists of α-7 nicotonic acetylcholine receptors” (AXOVANT SCIENCES GMBH, priority 2014, dated 2019).
Structures can show the parent of a compound that is named as a salt.

These compounds were tested against human α7 nAChRs transiently expressed in Xenopus laevis oocytes (Homo sapiens (Human), UniProt P36544) (assay: Oocyte electrophysiology screen (TEVC)). Conditions: 0.01 mM test compound, peak current relative to 0.2 mM ACh.
Sequence of human α7 nAChRs transiently expressed in Xenopus laevis oocytes (P36544 23-502 limits assumed): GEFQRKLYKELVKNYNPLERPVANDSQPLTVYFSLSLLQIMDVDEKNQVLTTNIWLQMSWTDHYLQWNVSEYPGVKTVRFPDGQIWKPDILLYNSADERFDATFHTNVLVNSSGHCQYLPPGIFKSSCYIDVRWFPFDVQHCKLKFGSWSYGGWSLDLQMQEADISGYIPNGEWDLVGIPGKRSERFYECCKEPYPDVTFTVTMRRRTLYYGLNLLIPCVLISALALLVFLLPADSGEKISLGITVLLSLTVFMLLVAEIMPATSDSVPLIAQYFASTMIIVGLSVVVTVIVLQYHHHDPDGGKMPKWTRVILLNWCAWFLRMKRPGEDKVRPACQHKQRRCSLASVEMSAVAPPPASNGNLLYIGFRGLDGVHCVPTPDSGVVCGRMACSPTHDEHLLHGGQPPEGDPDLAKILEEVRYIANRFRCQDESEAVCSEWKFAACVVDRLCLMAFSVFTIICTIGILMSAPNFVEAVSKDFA
Assay type: cell-based
Experimental: Oocyte Electrophysiology Screen (% ACh @ 10 μM Oocyte)
The Oocyte Electrophysiology Screen studies were performed under contract by HiQScreen Geneva, Switzerland. All experiments were carried out at human α7 nAChRs transiently expressed in Xenopus laevis oocytes using the method of cDNA expression. Currents evoked by acetylcholine or other agonist ligands were recorded using the standard two-electrode voltage-clamp configuration (TEVC). X. laevis oocytes were prepared and injected using standard procedures. Briefly, ovaries were harvested from X. laevis females that were deeply anesthetized and pithed following the animal rights rule from the Geneva canton. A small piece of ovary was isolated for immediate preparation while the remaining part was placed at 4° C. in a sterile Barth solution containing in mM: NaCl 88, KCl 1, NaHCO3 2.4, HEPES 10, MgSO4.7H2O 0.82, Ca(NO3)2.4H2O 0.33, CaCl2.6H2O 0.41, at pH 7.4, and supplemented with 20 μg/mL of kanamycin, 100 unit/mL penicillin and 100 μg/mL streptomycin. […] Cells were held at −80 mV. Data were filtered at 10 Hz, captured at 100 Hz and analyzed using proprietary data acquisition and analysis software running under Matlab (Mathworks Inc.).
Experimental Protocol and Analysis
After establishing a baseline transmembrane current, acetylcholine (ACh) was applied for 5 seconds at a concentration of 0.2 mM to establish a control ACh-evoked current response. Following a wash period of 90 s in OR2 medium (free of ACh), cells were then exposed for 30 s to the test compound applied at 0.01 mM. The same reference ACh test pulse was immediately given at the end of the compound exposure and again after 90 s of recovery in OR2 Medium (free of ACh or test compound). All data were determined in triplicate. The response evoked by the test compound was expressed as a percentage of that evoked by ACh: Response (% ACh)=100×(Itest/IACh) where Itest is the peak inward current measured during exposure to 0.01 mM of test compound and IACh is the peak inward current measured in the presence of ACh.

Compound	% ACh @ 10 μM Oocyte [% ACh]
CC(C)Oc1ccc2cc(C(=O)N[C@@H]3C4CCN(CC4)C3(C)C)sc2c1 [(R)-47, (R)—N-(2,2-dimethylquinuclidin-3-yl)-6-isopropoxybenzo[b]thiophene-2-carboxamide hydrochloride]	1
CC1(C)[C@H](NC(=O)c2cc3cccc(C#N)c3s2)C2CCN1CC2 [(R)-115, (R)-7-cyano-N-(2,2-dimethylquinuclidin-3-yl)benzo[b]thiophene-2-carboxamide hydrochloride]	215
Cc1nc2cc(C(=O)N[C@@H]3C4CCN(CC4)C3(C)C)ccc2s1 [(R)-34, (R)—N-(2,2-dimethylquinuclidin-3-yl)-2-methylbenzo[d]thiazole-5-carboxamide hydrochloride]	159
Cl.O=C(N[C@@H]1C2CCN(CC2)C12CC2)c1cc2c(cn1)OCCO2 [(R)-76, (R)—N-(1′-azaspiro[cyclopropane-1,2′-bicyclo[2.2.2]octan]-3′-yl)-2,3-dihydro-[1,4]dioxino[2,3-c]pyridine-7-carboxamide hydrochloride]	129
O=C(NC1C2CCN(CC2)C12CC2)c1cc2cc(F)ccc2s1 (single isomer, unassigned; enantiomer2) [64b, 5-fluoro-N-(1′-azaspiro[cyclopropane-1,2′-bicyclo[2.2.2]octan]-3′-yl)benzo[b]thiophene-2-carboxamide-enantiomer2]	1
COc1ccc2cc(C(=O)N[C@@H]3C4CCN(CC4)C3(C)C)sc2c1Cl [(R)-112, (R)-7-chloro-N-(2,2-dimethylquinuclidin-3-yl)-6-methoxybenzo[b]thiophene-2-carboxamide hydrochloride]	234
O=C(N[C@@H]1C2CCN(CC2)C12CC2)c1cc2cccc(Cl)c2o1 [(R)-164, (R)-7-chloro-N-(1′-azaspiro[cyclopropane-1,2′-bicyclo[2.2.2]octan]-3′-yl)benzofuran-2-carboxamide hydrochloride]	266
CC1(C)[C@@H](NC(=O)c2cc3cc(Cl)ccc3s2)C2CCN1CC2 [(S)-13, (S)-5-chloro-N-(2,2-dimethylquinuclidin-3-yl)benzo[b]thiophene-2-carboxamide hydrochloride]	3
O=C(NC1C2CCN(CC2)C12CC2)c1cc2cccc(C(F)(F)F)c2s1 (single isomer, unassigned; enantiomer2) [60b, N-(1′-azaspiro[cyclopropane-1,2′-bicyclo[2.2.2]octan]-3′-yl)-7-(trifluoromethyl)benzo[b]thiophene-2-carboxamide-enantiomer2]	1
CC1(C)[C@@H](NC(=O)c2cc3c(cn2)OCCO3)C2CCN1CC2 [(S)-23, (S)—N-(2,2-dimethylquinuclidin-3-yl)-2,3-dihydro-[1,4]dioxino[2,3-c]pyridine-7-carboxamide hydrochloride]	0
CC1(C)[C@H](NC(=O)c2cc3ccc(C4CCOCC4)cc3s2)C2CCN1CC2 [(R)-50, (R)—N-(2,2-dimethylquinuclidin-3-yl)-6-(tetrahydro-2H-pyran-4-yl)benzo[b]thiophene-2-carboxamide hydrochloride]	0

Same assay, conditions: 0.01 mM test compound, peak current relative to 0.2 mM ACh; hydrochloride

Compound	% ACh @ 10 μM Oocyte [% ACh]
CC1(C)C(NC(=O)c2cc3ccccc3s2)C2CCN1CC2 (single isomer, unassigned; enantiomer2) [1b, N-(2,2-dimethylquinuclidin-3-yl)benzo[b]thiophene-2-carboxamide-enantiomer2 hydrochloride]	2
O=C(NC1C2CCN(CC2)C12CC2)c1cc2ccc(Cl)cc2s1 (single isomer, unassigned; enantiomer2) [65b, 6-chloro-N-(1′-azaspiro[cyclopropane-1,2′-bicyclo[2.2.2]octan]-3′-yl)benzo[b]thiophene-2-carboxamide-enantiomer2 hydrochloride]	1
